In PubChem BioAssay (NCI):
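Results reflect a 48-hour exposure of cells in 96-well plates to compound at five concentrations. At the GI50, growth is halved. Definition used: TGI = concentration required for complete inhibition of growth.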

How the values were obtained:
Assay in all cases: NCI-60 cell line screen, 48 h
[1] = tested on: SF-539 CNS
[2] = tested on: MCF7 breast
[3] = tested on: PC-3 prostate
[4] = tested on: A498 renal
[5] = tested on: SR leukemia
[6] = tested on: HCC-2998 colon
[7] = tested on: HL-60(TB) leukemia
[8] = tested on: HT29 colon
[9] = tested on: SW-620 colon
[10] = tested on: M14 melanoma
[11] = tested on: OVCAR-3 ovarian
[12] = tested on: KM12 colon
[13] = tested on: NCI-H522 lung
[14] = tested on: SN12C renal
[15] = tested on: SK-MEL-28 melanoma
[16] = tested on: COLO 205 colon
[17] = tested on: HOP-92 NSCLC
[18] = tested on: HOP-62 NSCLC
[19] = tested on: HS 578T breast
[20] = tested on: A549 NSCLC
[21] = tested on: MALME-3M melanoma
[22] = tested on: SNB-19 CNS
[23] = tested on: RPMI-8226 leukemia
[24] = tested on: HCT-116 colon
[25] = tested on: UACC-62 melanoma
[26] = tested on: ACHN renal
[27] = tested on: K-562 leukemia
[28] = tested on: CAKI-1 renal
[29] = tested on: SF-295 CNS
[30] = tested on: OVCAR-8 ovarian
[31] = tested on: SK-OV-3 ovarian
[32] = tested on: MDA-MB-435
[33] = tested on: BT-549 breast
[34] = tested on: T-47D breast
[35] = tested on: LOX IMVI melanoma
[36] = tested on: DU-145 prostate
[37] = tested on: NCI-H460 lung
[38] = tested on: EKVX NSCLC
[39] = tested on: OVCAR-5 ovarian
[40] = tested on: CCRF-CEM leukemia
[41] = tested on: NCI/ADR-RES ovarian
[42] = tested on: SK-MEL-5 melanoma
[43] = tested on: NCI-H226 lung
[44] = tested on: IGROV1 ovarian
[45] = tested on: RXF 393 renal
[46] = tested on: SK-MEL-2 melanoma
[47] = tested on: SNB-75 CNS
[48] = tested on: 786-0 renal
[49] = tested on: SF-268 CNS
[50] = tested on: OVCAR-4 ovarian
[51] = tested on: MDA-MB-231 breast
[52] = tested on: U251 CNS
[53] = tested on: UACC-257 melanoma
[54] = tested on: MOLT-4 leukemia
[55] = tested on: UO-31 renal
[56] = tested on: NCI-H23 lung
[57] = tested on: HCT-15 colon
[58] = tested on: TK-10 renal

Q: With `COc1ccc(/C=N/NC(=O)c2[nH]c3ccc(Br)cc3c2-c2ccccc2)o1` as the compound, how does the GI50 [1] read?
A: The GI50 was 0.072 µM.

Q: What about the TGI [1] of the same compound?
A: The TGI was 0.237 µM.

Q: What about the GI50 [2] of the same compound?
A: The GI50 was 0.0907 µM.

Q: And the TGI [2]?
A: The TGI was 11.1 µM.

Q: What about the GI50 [3] of the same compound?
A: Its GI50 is 0.386 µM.

Q: What about the TGI [3] of the same compound?
A: Its TGI is > 34.4 µM.

Q: And the GI50 [4]?
A: The GI50 was 16.7 µM.

Q: What about the TGI [4] of the same compound?
A: Its TGI is 37.3 µM.

Q: What about the GI50 [5] of the same compound?
A: Its GI50 is 0.114 µM.

Q: What about the TGI [5] of the same compound?
A: Its TGI is 19.1 µM.

Q: And the GI50 [6]?
A: The GI50 was 0.382 µM.

Q: And the TGI [6]?
A: The TGI was 14.3 µM.

Q: What about the GI50 [7] of the same compound?
A: Its GI50 is 0.0748 µM.

Q: What about the TGI [7] of the same compound?
A: The TGI was 0.265 µM.

Q: What about the GI50 [8] of the same compound?
A: Its GI50 is 0.0666 µM.

Q: And the GI50 [9]?
A: The GI50 was 0.196 µM.

Q: And the TGI [9]?
A: The TGI was 28.3 µM.

Q: And the GI50 [10]?
A: The GI50 was 0.299 µM.

Q: What about the TGI [10] of the same compound?
A: Its TGI is 15.3 µM.

Q: What about the GI50 [11] of the same compound?
A: The GI50 was 0.284 µM.

Q: What about the TGI [11] of the same compound?
A: The TGI was 2.84 µM.

Q: And the GI50 [12]?
A: Its GI50 is 0.311 µM.

Q: What about the TGI [12] of the same compound?
A: Its TGI is 4.84 µM.

Q: What about the GI50 [13] of the same compound?
A: The GI50 was 0.0216 µM.

Q: And the TGI [13]?
A: Its TGI is 0.0592 µM.

Q: What about the GI50 [14] of the same compound?
A: The GI50 was 0.125 µM.

Q: What about the TGI [14] of the same compound?
A: The TGI was 8.31 µM.

Q: What about the GI50 [15] of the same compound?
A: Its GI50 is 0.418 µM.

Q: And the TGI [15]?
A: The TGI was 15.8 µM.

Q: What about the GI50 [16] of the same compound?
A: Its GI50 is 0.196 µM.

Q: And the TGI [16]?
A: Its TGI is 0.377 µM.

Q: And the GI50 [17]?
A: The GI50 was 0.953 µM.

Q: What about the TGI [17] of the same compound?
A: Its TGI is 10.1 µM.

Q: And the GI50 [18]?
A: The GI50 was 0.467 µM.

Q: And the TGI [18]?
A: The TGI was 20.8 µM.

Q: What about the GI50 [19] of the same compound?
A: Its GI50 is 0.57 µM.

Q: What about the TGI [19] of the same compound?
A: Its TGI is 21 µM.

Q: And the GI50 [20]?
A: The GI50 was 0.251 µM.

Q: What about the TGI [20] of the same compound?
A: The TGI was > 49.9 µM.

Q: What about the GI50 [21] of the same compound?
A: Its GI50 is 0.202 µM.

Q: What about the TGI [21] of the same compound?
A: Its TGI is 17.7 µM.

Q: And the GI50 [22]?
A: The GI50 was 0.323 µM.

Q: What about the TGI [22] of the same compound?
A: Its TGI is 19.7 µM.

Q: What about the GI50 [23] of the same compound?
A: Its GI50 is 0.161 µM.

Q: And the TGI [23]?
A: The TGI was > 32.5 µM.

Q: What about the GI50 [24] of the same compound?
A: Its GI50 is 0.108 µM.

Q: What about the TGI [24] of the same compound?
A: Its TGI is 1.1 µM.

Q: And the GI50 [25]?
A: The GI50 was 0.122 µM.

Q: And the TGI [25]?
A: Its TGI is 13.9 µM.

Q: And the GI50 [26]?
A: Its GI50 is 0.203 µM.

Q: What about the TGI [26] of the same compound?
A: The TGI was 20.7 µM.

Q: And the GI50 [27]?
A: The GI50 was 0.055 µM.

Q: What about the TGI [27] of the same compound?
A: The TGI was > 72.2 µM.

Q: And the GI50 [28]?
A: Its GI50 is 0.295 µM.

Q: What about the TGI [28] of the same compound?
A: Its TGI is 21 µM.

Q: And the GI50 [29]?
A: The GI50 was 0.165 µM.

Q: And the TGI [29]?
A: Its TGI is 2.88 µM.

Q: And the GI50 [30]?
A: Its GI50 is 0.143 µM.

Q: What about the TGI [30] of the same compound?
A: The TGI was 1.57 µM.

Q: What about the GI50 [31] of the same compound?
A: Its GI50 is 0.455 µM.

Q: And the TGI [31]?
A: Its TGI is 40.2 µM.

Q: What about the GI50 [32] of the same compound?
A: The GI50 was 0.112 µM.

Q: What about the TGI [32] of the same compound?
A: Its TGI is 0.303 µM.

Q: What about the GI50 [33] of the same compound?
A: Its GI50 is 0.177 µM.

Q: And the TGI [33]?
A: The TGI was 0.667 µM.

Q: And the GI50 [34]?
A: Its GI50 is 2.95 µM.

Q: What about the TGI [34] of the same compound?
A: Its TGI is 20.6 µM.

Q: What about the GI50 [35] of the same compound?
A: Its GI50 is 0.0354 µM.

Q: And the TGI [35]?
A: Its TGI is 12.3 µM.

Q: What about the GI50 [36] of the same compound?
A: The GI50 was 0.307 µM.

Q: And the TGI [36]?
A: The TGI was 14.3 µM.

Q: What about the GI50 [37] of the same compound?
A: The GI50 was 0.248 µM.

Q: What about the TGI [37] of the same compound?
A: Its TGI is 1.59 µM.

Q: What about the GI50 [38] of the same compound?
A: Its GI50 is 0.968 µM.

Q: And the TGI [38]?
A: The TGI was 29.4 µM.

Q: What about the GI50 [39] of the same compound?
A: Its GI50 is 0.161 µM.

Q: And the TGI [39]?
A: Its TGI is 17.6 µM.

Q: And the GI50 [40]?
A: Its GI50 is 0.136 µM.

Q: What about the TGI [40] of the same compound?
A: Its TGI is > 55.2 µM.

Q: What about the GI50 [41] of the same compound?
A: Its GI50 is 0.0533 µM.

Q: And the TGI [41]?
A: The TGI was 2.59 µM.

Q: And the GI50 [42]?
A: The GI50 was 0.163 µM.

Q: And the TGI [42]?
A: Its TGI is 0.391 µM.

Q: And the GI50 [43]?
A: The GI50 was 0.276 µM.

Q: What about the TGI [43] of the same compound?
A: The TGI was 7.95 µM.

Q: What about the GI50 [44] of the same compound?
A: The GI50 was 0.314 µM.

Q: And the TGI [44]?
A: Its TGI is 16.7 µM.

Q: What about the GI50 [45] of the same compound?
A: The GI50 was 1.1 µM.

Q: What about the TGI [45] of the same compound?
A: Its TGI is 17.8 µM.

Q: What about the GI50 [46] of the same compound?
A: The GI50 was 0.134 µM.

Q: And the TGI [46]?
A: Its TGI is 9.22 µM.

Q: And the GI50 [47]?
A: Its GI50 is 0.165 µM.

Q: What about the TGI [47] of the same compound?
A: The TGI was 3.53 µM.

Q: And the GI50 [48]?
A: The GI50 was 0.353 µM.

Q: And the TGI [48]?
A: The TGI was 13.7 µM.

Q: And the GI50 [49]?
A: Its GI50 is 0.5 µM.

Q: And the TGI [49]?
A: The TGI was 27.8 µM.

Q: And the GI50 [50]?
A: Its GI50 is 0.265 µM.

Q: What about the TGI [50] of the same compound?
A: The TGI was 29.3 µM.

Q: And the GI50 [51]?
A: The GI50 was 0.148 µM.

Q: And the TGI [51]?
A: The TGI was 2.19 µM.

Q: What about the GI50 [52] of the same compound?
A: The GI50 was 0.309 µM.

Q: What about the TGI [52] of the same compound?
A: The TGI was 11 µM.

Q: What about the GI50 [53] of the same compound?
A: The GI50 was 0.258 µM.

Q: And the TGI [53]?
A: Its TGI is 23.2 µM.

Q: What about the GI50 [54] of the same compound?
A: The GI50 was 0.0599 µM.

Q: What about the TGI [54] of the same compound?
A: The TGI was 21.9 µM.

Q: What about the GI50 [55] of the same compound?
A: The GI50 was 0.47 µM.

Q: And the TGI [55]?
A: Its TGI is 21.5 µM.

Q: And the GI50 [56]?
A: Its GI50 is 0.3 µM.

Q: What about the TGI [56] of the same compound?
A: Its TGI is 9.9 µM.

Q: And the GI50 [57]?
A: Its GI50 is 0.219 µM.

Q: What about the TGI [57] of the same compound?
A: Its TGI is 3.04 µM.

Q: What about the GI50 [58] of the same compound?
A: The GI50 was 2.26 µM.

Q: And the TGI [58]?
A: The TGI was 37.1 µM.
